Values after ≈ are worked out from the molar mass of the structure shown.
The compounds below were run on Mycobacterium tuberculosis (assay: Antimycobacterial activity against isoniazid, rifampicin and ethambuto-resistant Mycobacterium tuberculosis using compound level ranging from 0.3125 to 5 ug/mL after 7 days by resazurin reduction test). Conditions: 168 h.
Assay type: functional

| SMILES | MIC [µg/mL] |
| --- | --- |
| Cc1[nH]cnc1/C=N/NC(=O)c1cnc2c(C(F)(F)F)cccc2c1O | > 50 |
| COc1ccc2[nH]cc(/C=N/NC(=O)c3cnc4c(C(F)(F)F)cccc4c3O)c2c1 | 6.25 (≈ 14.6 µM) |
| COC(=O)Cc1cc(/C=N/NC(=O)c2cnc3c(C(F)(F)F)cccc3c2O)co1 | > 50 |
| O=C(N/N=C/c1cnc[nH]1)c1cnc2c(C(F)(F)F)cccc2c1O | > 50 |
| Cc1cccc2c(/C=N/NC(=O)c3cnc4c(C(F)(F)F)cccc4c3O)c[nH]c12 | 6.25 (≈ 15.2 µM) |
| Cn1nnc2cc(/C=N\NC(=O)c3cnc4c(C(F)(F)F)cccc4c3O)ccc21 | > 50 |
| Cn1cccc1/C=N\NC(=O)c1cnc2c(C(F)(F)F)cccc2c1O | 6.25 (≈ 17.3 µM) |
| COc1ccc(/C=N/NC(=O)c2cnc3c(C(F)(F)F)cccc3c2O)c(F)c1 | 6.25 (≈ 15.3 µM) |
| O=C(N/N=C/c1ccc(OC(F)(F)C(F)F)cc1)c1cnc2c(C(F)(F)F)cccc2c1O | 25 (≈ 52.6 µM) |
| O=C(N/N=C/c1cc(F)ccc1O)c1cnc2c(C(F)(F)F)cccc2c1O | > 50 |
| COc1ccc(/C=N/NC(=O)c2cnc3c(C(F)(F)F)cccc3c2O)cc1 | 12.5 (≈ 32.1 µM) |
| COc1ccc(/C=N/NC(=O)c2cnc3c(C(F)(F)F)cccc3c2O)cc1O | > 50 |
| Cc1ccc(/C=N/NC(=O)c2cnc3c(C(F)(F)F)cccc3c2O)cc1 | > 50 |
| O=C(NNC(=S)Nc1cccc(Cl)c1)c1cnc2c(C(F)(F)F)cccc2c1O | 25 (≈ 56.7 µM) |
| O=C(NNC(=S)Nc1ccccc1F)c1cnc2c(C(F)(F)F)cccc2c1O | 12.5 (≈ 29.5 µM) |
| COc1ccc(NC(=S)NNC(=O)c2cnc3c(C(F)(F)F)cccc3c2O)cc1 | > 50 |
| Cc1cc(C)cc(NC(=O)NNC(=O)c2cnc3c(C(F)(F)F)cccc3c2O)c1 | > 50 |
| O=C(NNC(=O)c1cnc2c(C(F)(F)F)cccc2c1O)Nc1cccc(Cl)c1 | 25 (≈ 58.9 µM) |
| COc1ccc(NC(=O)NNC(=O)c2cnc3c(C(F)(F)F)cccc3c2O)cc1 | 12.5 (≈ 29.7 µM) |
| Cc1ccc(NC(=O)NNC(=O)c2cnc3c(C(F)(F)F)cccc3c2O)cc1 | 25 (≈ 61.8 µM) |
| CCc1ccc(NC(=O)NNC(=O)c2cnc3c(C(F)(F)F)cccc3c2O)cc1 | > 50 |
| NNC(=O)c1ccncc1 [ISONIAZID] | 12.5 (≈ 91.1 µM) |
| CO[C@H]1/C=C/O[C@@]2(C)Oc3c(C)c(O)c4c(O)c(c(/C=N/N5CCN(C)CC5)c(O)c4c3C2=O)NC(=O)/C(C)=C\C=C\[C@H](C)[C@H](O)[C@@H](C)[C@@H](O)[C@@H](C)[C@H](OC(C)=O)[C@@H]1C [RIFAMPIN] | 25 (≈ 30.4 µM) |

— ChEMBL document CHEMBL1909590, “Design, synthesis and docking studies of new quinoline-3-carbohydrazide derivatives as antitubercular agents” (2011)
